Measurements: paper PMC11512107, “Structural and biochemical analysis of ligand binding in yeast Niemann–Pick type C1–related protein” (Life Science Alliance, 2024)
Where “and” joins values, the source holds several entries; their conditions need not be identical. Identical values can stand only once. Entries after “also recorded” stand apart in the source; their conditions may differ.

What was measured:
NTD of NCR1 [1] = molecular target: T1, NTD of NCR1 (Saccharomyces cerevisiae, UniProt Q12200); test: In vitro liposome crosslinking assay of pac-lipids with the NTD; type: binding; details: liposomes with 1.5 mol% pac-lipid (1 μM), 1.5 μM NTD, average ratio
T1 construct: residues 1–249, UniProt: Q12200; thrombin cleavage site (C); deca-histidine tag (C, cleaved yes); made in house; host or cells: Saccharomyces cerevisiae strain DSY-5
Description: In a parallel approach, the substrate scope of the NTD and NPC2 was probed with photo-activatable and clickable (pac) lipids. Pac-lipids contain small chemical modifications for click chemistry reactions, with fluorophores such as AF647 (a structural analog of Alexa Fluor 647), and for UV-activated photo-crosslinking, respectively ([45]). In contrast to NBD-tagged lipids delivered in solution, pac-lipids such as pac-cholesterol (pacChol), pac-phosphatidylcholine (pacPC), pac-sphingosine (pacSph), and pac-ceramide (pacCer) were reconstituted in liposomal membranes (Fig 5A and B). As expected, the delipidated NTD crosslinks with pacChol (average +UV/−UV ratio = 2.11). Crosslinking of the NTD with pacSph (+UV/−UV = 1.73) and, to a lesser extent, with pacCer and pacPC (+UV/−UV = 1.40 and 1.12), respectively, was also detected (Fig 5C and D).
Lipids from stock vials were dissolved in chloroform and mixed at the desired molar ratio. […]
Extruded liposomes were diluted in PBS until a final lipid concentration of 60 μM, including 1 μM pac-lipid. […] Data were evaluated by subtracting background fluorescence, followed by comparing the AF647 signal between crosslinked and non-crosslinked samples, normalized to protein loading based on Coomassie staining. […] Statistics were calculated with the Mann–Whitney U test.

NPC2 [2] = molecular target: T2, NPC2 (Saccharomyces cerevisiae, UniProt Q12408); test: In vitro liposome crosslinking assay of pac-lipids with NPC2; type: binding
T2 construct: residues 1–173, UniProt: Q12408; thrombin cleavage site (C); deca-histidine tag (C, cleaved yes); made in house; host or cells: Saccharomyces cerevisiae strain DSY-5
T2 sequence (Q12408 22-173): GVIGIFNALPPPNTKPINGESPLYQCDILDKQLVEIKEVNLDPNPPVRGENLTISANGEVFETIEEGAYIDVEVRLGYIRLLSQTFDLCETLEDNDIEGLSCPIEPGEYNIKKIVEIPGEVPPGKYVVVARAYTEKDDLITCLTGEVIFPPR
Description: To compare with the interaction profile of the NTD, crosslinking assays were also performed with purified, delipidated NPC2 (Fig S4A and B). […] NPC2 crosslinks well with all tested pac-lipids but, as for the NTD, most strongly with pacChol (+UV/−UV ratio = 1.91). Robust and consistent crosslinking with pacSph (+UV/−UV ratio = 1.64), pacCer (+UV/−UV = 1.67), and pacPC (+UV/−UV = 1.63) were observed. The crosslinking efficiency for cholesterol and sphingosine analogs was higher for the NTD, whereas crosslinking with ceramide and PC analogs seemed stronger with NPC2.
Lipids from stock vials were dissolved in chloroform and mixed at the desired molar ratio. For in vitro crosslinking, most liposomes consisted of 88.5 mol% DOPC as carrier lipid, 10 mol% DOPS, and 1.5 mol% respective pac-lipid. The pac-lipids were incorporated into liposomes at low concentrations (1.5 mol%) to ensure homogenous distribution and avoid micelle formation. The solvent was evaporated in a rotary evaporator (Hei-VAP Core, Heidolph) for 30 min at 42°C at 150 rpm to create a thin lipid film. Lipid films were hydrated with filtered and degassed PBS (137 mM NaCl, 2.7 mM KCl, 10 mM Na2HPO4, 1.8 mM KH2PO4, pH 7.4). Solutions of hydrated lipids (with a total lipid concentration of 2 mM) were subjected to five freeze–thaw cycles in liquid nitrogen and warm water (42°C) to facilitate breakup of large structures and support formation of smaller multilamellar vesicles. Lipid solutions were stored at −20°C. Before use, liposomes were extruded by passing 20x through a 100-nm pore size polycarbonate filter (Nuclepore; Whatman) using a hand extruder (Avanti Polar Lipids). Extruded liposomes were stored at 4°C, protected from light, and used within 1–2 d.
Extruded liposomes were diluted in PBS until a final lipid concentration of 60 μM, including 1 μM pac-lipid. Purified proteins were added until a final concentration of 1.5 μM in a reaction volume of 100 μl. Protein–liposome mixtures were incubated in 0.5-ml Eppendorf tubes for 30 min at 37°C at 400 rpm (Comfort thermomixer, Eppendorf), then crosslinked (or not) by exposure to 365-nm UV light for 15 min at 4°C using a 100-W mercury lamp (Blak-Ray B-100AP). After crosslinking, the click reaction was performed by adding 0.7 μl of freshly prepared click mix into the sample tubes. The final concentrations of click reagents in sample tubes were 80 μM CuSO4 (Merck), 3 μM TBTA (Merck), 3 μM AF647-picolyl azide (Jena Bioscience), and 80 μM ascorbic acid (Merck). Fresh stock of ascorbic acid solution in water was prepared every time and added to the click mix immediately before starting the click reaction. Click reactions were allowed to proceed for 2 h at 37°C at 400 rpm with the thermomixer. Then, samples were concentrated in a vacuum evaporator for 30 min set to 30°C and supplemented with 4x Lämmli buffer (250 mM Tris, pH 6.8, 9.2% SDS, 40% glycerol, 0.2% bromophenol blue, 100 mM DTT). Samples were boiled for 5 min at 95°C, and clicked protein–lipid complexes were resolved by SDS–PAGE. After extensive destaining in a destain solution (65% water, 25% isopropanol, and 10% acetic acid), the AF647 (a structural analog of Alexa Fluor 647) and Coomassie images were acquired using the LI-COR Odyssey imaging system. Data were evaluated by subtracting background fluorescence, followed by comparing the AF647 signal between crosslinked and non-crosslinked samples, normalized to protein loading based on Coomassie staining. The resulting values are described as +UV/−UV ratios. Statistics were calculated with the Mann–Whitney U test.

NTD of NCR1 [3] = molecular target: T1, NTD of NCR1; test: Fluorescence binding assay of NBD-lipids titrated with the NTD
Description: (§1) To investigate substrate candidates for the NTD of NCR1 and NPC2, biochemical assays were conducted with purified protein and fluorescent lipid analogs. The purified, delipidated NTD was titrated into NBD-tagged phospholipids and sphingolipids, in which the fluorophore is attached to the hydrophobic tail of the lipid molecules. An increase in signal is based on an enhanced molecular brightness of the NBD-moiety upon binding in a more hydrophobic environment ([28]). This increase in fluorescence correlates with the concentration of the NTD (Fig 3A), which can be used to infer the affinity of the NTD to a given NBD-lipid (Fig 3B–G). […] The measured increase in fluorescence of each NBD-lipid upon titrating the protein was used to determine an apparent dissociation constant (KD) according to a one-site binding model (Equation (1)).
(§2) Fluorescence binding assays were conducted using NBD-PC, NBD-PS, NBD-Cer, and NBD-Sph (Avanti Polar Lipids), and NBD-PI (Prof. Bütikofer), dissolved in ethanol. […] NBD-lipids were excited at 460 nm, and the emission spectra were recorded within a range of 490–600 nm. […] Emission spectra for NBD-lipids were measured as a control and subtracted from the sample emission spectra. The control cuvette was measured every time the sample was measured to correct the data for bleaching of NBD-Sph. […]

NPC2 [4] = molecular target: T2, NPC2; test: Fluorescence binding assay of NBD-lipids titrated with NPC2
Description: as §1, §2

NTD of NCR1 [5] = molecular target: T1, NTD of NCR1; test: Competitive binding assays of edelfosine and NBD-Sph to the NTD; details: for Kd: 1 μM NBD-Sph, read-out: apparent KD of NBD-Sph to the NTD
Description: Edelfosine is a synthetic lysophospholipid with cytotoxic antifungal effects. […] To investigate this, two competitive binding assays with edelfosine and NBD-Sph were designed (Fig 4). For the first assay, the NTD was saturated by NBD-Sph and the addition of edelfosine led to the exchange of the NTD-bound substrate, causing a drop in NBD-Sph fluorescence by about 50% (Fig 4A). […] To further evaluate the capability of NBD-Sph to participate in micelle formation, each emission spectrum was normalized with varying concentrations of edelfosine (Fig 4B). […] The shift in the wavelength of the emission peaks indicates a change in the environment of the fluorophore ([48], [49], [50]), likely indicating the transition of NBD-Sph from being free in solution to being incorporated into mixed micelles with edelfosine. Initially, emission peaks at ∼530 nm are observed, assigned to be NTD and NBD-Sph complexes (Fig 4C). […] Similarly, for binding of substrates at higher concentrations than their CMC, this binding assay is rather complex because of edelfosine exceeding its CMC. […] Because of these restrictions, the inhibitory constant for edelfosine is referred to as apparent, rather than a real, inhibitor constant (KI).
Based on the above observations, fixed amounts of edelfosine were added to NBD-Sph before titrating with the NTD in the second assay (Fig 4D).
For measuring the ability of edelfosine to outcompete NBD-Sph, 1 μM NBD-Sph and 1 μM NTD were mixed to form the interaction complex before adding increasing amounts of edelfosine. As a control, edelfosine was titrated into a cuvette containing exclusively NBD-Sph in buffer. To measure the competitive binding between NBD-Sph and edelfosine, 1 μM NBD-lipid in Tris buffer was mixed with either 0.1, 0.5, or 0.7 μM edelfosine in the sample cuvette before titration with the NTD.
Before determination of dissociation constants, the measurements were normalized. The protein–lipid binding measurements were normalized to the highest intensity in each dataset. For the competition assay, the data were normalized to the lowest intensity in the dataset to be able to fit all data to Equation (1), the full model for one-site binding for the saturated fraction, f ([27]):(1) RL/Rt=Rt+KD+Lt-Rt+KD+Lt^2-4⋅Rt⋅Lt/2⋅Rt=f
To determine the dissociation constant of edelfosine (referred to as KI) in the competition assay, it can be assumed that the binding is simple and that all added ligand is bound. In this case, the IC50 can be used to calculate a KI using Equation (2) on normalized data:(2) KI=IC50⋅KD/KD+L
The KD is the dissociation constant of the ligand, [L] is the concentration, and IC50 is the concentration of the inhibitor, where half of the ligand is inhibited.

[6] = CMC measurement of NBD-lipids by fluorescence; type: physicochemical; details: MES buffer pH 5.5, fluorescence 460/530 nm
Description: The CMC of NBD-Sph was measured by adding increasing concentrations of NBD-Sph to a cuvette containing MES buffer. Between measurements, the solution was mixed and incubated for 10 min. The highest measured concentration of NBD-Sph was 30 μM.
(§3) To determine the CMC, the sigmoid curve was fitted and adjusted to the normalized data: f(x)=l/1+e^−k⋅(x−x0)+b (3)
(§4) Here, l is the scaling of the y-axis, x0 represents the CMC, k determines the sharpness of the fitted curve, and b is the starting position on the y-axis.

[7] = set-up: method as in PMID 19348755; details: aggregated form; cited from earlier work
[8] = CMC measurement of edelfosine with Sudan Black B absorbance; type: physicochemical; details: MES buffer pH 5.5, Sudan Black B absorbance 600 nm, n = 1
Description: As edelfosine is not fluorescent, a different approach was used to measure its CMC. The hydrophobic dye, Sudan Black B, was used to stain micelles. The absorption of solutions consisting of MES buffer, Sudan Black, and increasing concentrations of edelfosine was measured using a spectrophotometer (Hitachi U-2010).
as §3, §4

[9] = 20 mol% ergosterol: 1 μM pac-lipid and 13 μM ergosterol

T1 sequence (Q12200 20-249): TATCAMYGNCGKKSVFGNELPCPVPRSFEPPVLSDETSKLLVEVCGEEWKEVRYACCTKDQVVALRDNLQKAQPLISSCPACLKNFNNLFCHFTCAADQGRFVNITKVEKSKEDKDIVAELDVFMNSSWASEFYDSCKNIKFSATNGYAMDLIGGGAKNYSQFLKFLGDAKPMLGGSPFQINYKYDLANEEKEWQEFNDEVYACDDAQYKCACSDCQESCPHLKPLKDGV

C#CCCCCOC(=O)CCC(C)C1CCC2C3CC4(N=N4)C4CC(O)CCC4(C)C3CCC12C (centres unmarked) [pacChol]
+UV/−UV ratio (crosslinking with NTD) (NTD of NCR1 [1]): 2.11 | +UV/−UV ratio (crosslinking with NPC2) (NPC2 [2]; liposomes with 1.5 mol% pac-lipid (1 μM), 1.5 μM NPC2): 1.91

NC(CO)C(O)C=CCCCCCCCCCCCCCNc1ccc([N+](=O)[O-])c2nonc12 (centres unmarked) [NBD-Sph]
Kd (NTD of NCR1 [3]; pH 5.5, 1 μM NBD-lipid, values for NBD-PC, NBD-PS, NBD-Cer (marked °) are apparent KD, above CMC): ~250 nM and 250 nM | Kd (NTD of NCR1 [3]; pH 7.5, 1 μM NBD-lipid): ~120 nM and 120 nM | Kd (NPC2 [4]; pH 5.5, 1 μM NBD-lipid, values marked ° are apparent KD): ~580 nM and 580 nM | Kd (NPC2 [4]; pH 7.5, 1 μM NBD-lipid): ~530 nM and 530 nM | Kd (NTD of NCR1 [5]; 0.0 μM edelfosine, pH 7.5): 120 nM and ~120 nM | Kd (NTD of NCR1 [5]; 0.1 μM edelfosine, pH 7.5): 120 ± 10 nM | Kd (NTD of NCR1 [5]; 0.5 μM edelfosine, pH 7.5): 160 ± 60 nM | Kd (NTD of NCR1 [5]; 0.7 μM edelfosine, pH 7.5): 210 nM and ~210 nM | critical micelle concentration (CMC) [6]: ~13 µM

CCCCCCCCCCCCC/C=C/[C@@H](O)[C@@H](N)CO [sphingosine]
pKa [7]: 6.61

CCCCCCCCCCCCCCCCCCOCC(COP(=O)([O-])OCC[N+](C)(C)C)OC (centres unmarked) [edelfosine]
IC50 (NTD of NCR1 [5]; 1 μM NBD-Sph mixed with 1 μM NTD, 0 to 4 μM edelfosine, pH 7.5, read-out: IC50 of edelfosine against NBD-Sph binding to the NTD): 480 nM and 500 nM | drop in NBD-Sph fluorescence on addition of edelfosine (NTD of NCR1 [5]; NTD saturated by NBD-Sph, pH 7.5): about 50% | Ki (NTD of NCR1 [5]; calculated from IC50 with Equation (2), apparent, edelfosine exceeds its CMC, read-out: apparent inhibitor constant (KI)): ~50 nM | critical micelle concentration (CMC) [8]: 0.7 µM and 0.715 µM | effect of edelfosine on NPC2 crosslinking with pac-lipids (NPC2 [2]; fivefold excess: 1 μM pac-lipid and 5 μM edelfosine in liposomes): no noticeable inhibition of crosslinking; also recorded: no noticeable effect

CC(C)[C@@H](C)/C=C/[C@@H](C)[C@H]1CC[C@H]2C3=CC=C4C[C@@H](O)CC[C@]4(C)[C@H]3CC[C@]12C [Ergosterol, ergosterol]
effect of ergosterol on NPC2 crosslinking with pacChol and pacPC (NPC2 [2]; [9]): does not visibly influence | effect of ergosterol on NPC2 crosslinking with pacSph and pacCer (NPC2 [2]; [9]): trend toward increased crosslinking | effect of ergosterol on NPC2 crosslinking with pacSph and pacCer (NPC2 [2]; 20 mol% ergosterol: 1 μM pac-lipid and 13 μM ergosterol, listed as ergosterol): increased crosslinking
